Data set [1] relates to Zymosan-induced mechanical hyperalgesia. Description: Zymosan-induced mechanical hyperalgesia (Randall-Selitto), inflammatory pain. Type of data set: in vivo, rat. As to conditions: oral, 30 min before zymosan, 4 hours after challenge. On the procedure:
(§1) The interplantar injection of Zymosan-induced mechanical hyperalgesia was used as a model of inflammatory pain (Meller, Neuropharmacology, 1994, 33, 1471-1478). In this model, typically a male Sprague-Dawley or Wistar rat (200-250 g) receives an interplantar injection of 3 mg/100 μl zymosan into one hind paw. A marked inflammation occurs in this hind paw. Drugs are administered orally for evaluation of efficacy, 30 min. before the inflammatory insult. The hyperalgesia induced by zymosan administration was evaluated using the Randall-Selitto method (Arch. Int. Pharmacodyn., 1957, 111, 409). The quantitation of the analgesic effect is achieved by an analgesimeter, which consist in applying to the inflamed paw an increasing weight (from 130-140 g up to 500 g). The difference in the mechanical pain threshold between the basal value (generally 230-250 g) and the one tolerated by the animals treated with the drug, determined 4 hours after the inflammatory challenge, is defined as mechanical hyperalgesia. Mechanical hyperalgesia is expressed for the compounds of the invention as ED50, which is the dose of the administered compound able to increase the pain threshold by 50% in comparison with the group of control animals. The corresponding ED100, representing the dose able of reducing of 100% the pain threshold, can be calculated for those cases where there is a linear dose-response relationship. In vivo anti-inflammatory effect exerted by the compound of the invention can be assessed in the same Zymosan induced inflammation test described above, by measuring the volume of the oedema induced by the inflammatory agent. The oedema was evaluated as the increase in the volume of the Zymosan injected paw within a time of 0-2 hrs. The measurements of the variation of the oedema volume of the paw were recorded using hydroplethysmometer, which consists of two plastic cuvettes containing a surfactant liquid, the larger one being used for immersion of the paw, connected to the smaller one which contains a transducer capable of recording small displacements of the volume used for the measure. The paw is immersed in the cuvettes up to the tibiotarsal joint. The volume of the liquid displaced is proportional to the extent of the inflammation. The efficacy of the compounds of the invention in preventing oedema formation is expressed as ED30, is measured 2 hours after the inflammatory challenge, and represents the dose able of reducing of 30%, the Zymosan induced paw volume increase in comparison to control animals (animals treated with Zymosan but treated with only distilled water instead of the testing compound). The corresponding ED50, representing the dose able of reducing of 50% the Zymosan induced paw volume increase, can be calculated for those cases where there is a linear dose-response relationship. In both the experiments, for each test compound, at least three doses were used, with 10 animals per group. Compounds of the invention were tested at 10, 20 and 40 mg/Kg.

The subject of data set [2] is Zymosan induced paw volume increase. Description: Zymosan-induced paw oedema. Type of data set: in vivo, rat. As to conditions: oral; 2 hours after challenge. On the procedure:
as §1

The conditions of data set [3]: even at the higher doses tested. From the text: The performance of representative compounds of Formula (I), in the tests described above, is summarized for both the analgesic effect and the anti-inflammatory effect in Table 4, where the activity of the compounds of the invention is compared with the performance in the same test of well known standards.

For `CS(=O)(=O)Nc1ccc([N+](=O)[O-])cc1Oc1ccccc1` [Nimesulide], the ED50 in data set [1] (Rattus norvegicus, read-out: Analgesia ED50) worked out at 7.4 mg/kg. For the same compound, the “Analgesia ED100” value in data set [1] came to 161 mg/kg. Further, the “Oedema Reduction ED30” value in data set [2] was 0.5 mg/kg. Besides, in data set [3], the ulcerative side effects entry is recorded as “ulcerative side effects”.

As usually defined, the ED50 is the dose at which the effect has come halfway, by size or by number of responders.

For the origin of these results see US8193353B2, “6-1H-imidazo-quinazoline and quinolines derivatives, new potent analgesics and anti-inflammatory agents” (Rottapharm S.p.A, priority 2006, dated 2012).
